These compounds were tested on GBM8 cells (human glioblastoma neurosphere cell culture) (assay: GBM8 viability assay (Cell Titer Glo luminescence, 3 days)). Settings: 72 h, 3 days incubation.
Format: cell-based
Experimental: Example 283: GBM4 and GBM8 Viability Assay
Cell culture medium was prepared from a NSA proliferation kit (Neurocult) and NeuroCult supplements (Stemcell Tech Cat. #05751) and treated with 20 μL of 10 μg/mL rh EGF, 10 μL of 10 μg/mL rh bFGF and 10 μL of 0.2% Heparin. In this medium, human glioblastoma cells were cultured in ultra-low attachment tissue culture flasks until 1×10^6 cells ml was achieved (GBM4 and GBM8 are distinct neurosphere cell cultures derived from these human patient tissues). GBM4 and GBM8 cells were dissociated and 10 mL of media containing 4000 human glioblastoma cells per 90 uL were transferred to an ultra-low binding 96-well plate and incubated at 37° C. overnight. On the following day, 10 μL of a 1% DMSO solution of test compound in assay medium was added to wells containing the cell suspension and the mixture incubated at 37° C. for 3 days. At this time, the plate was removed from the incubator and allowed to reach room temperature. After about 30 minutes, 50 μL of Cell Titer Glo solution was added to each well and the plate shaken for 1 minute at low speed. After 10 minutes luminescence was recorded using a Tecan Safire2 reader.
Reduction in luminescence compared to DMSO only control wells was used to determine the percentage inhibition of cell growth. IC50s were calculated using the % inhibition of luminescence for serial dilutions of compounds fitted to a 4-parameter fit within the Prism (San Diego) curve fitting program.

| Structure (SMILES) | IC50 [nM] |
| --- | --- |
| CCNc1cc(C)nc(NC(=O)Nc2ccc(OC)cc2)n1 [Compound 139] | < 1000 |
| Cc1cc(NCCCN(C)C)nc(NC(=O)Nc2ccc(C)c(C)c2)n1 [Compound 251, 1-(4-((3-(dimethylamino)propyl)amino)-6-methylpyrimidin-2-yl)-3-(3,4-dimethylphenyl)urea] | < 1000 |
| Cc1cc(NCCCN)nc(NC(=O)Nc2cccc(OC(F)(F)F)c2)n1 [Compound 177] | < 1000 |
| CCNc1cc(C)nc(NC(=O)Nc2cccc(C)c2)n1 [Compound 224] | < 1000 |
| CNCCCNc1cc(C)nc(NC(=O)Nc2ccc3c(c2)OCO3)n1 [Compound 289, 1-(benzo[d][1,3]dioxol-5-yl)-3-(4-methyl-6-((3-(methylamino)propyl)amino)pyrimidin-2-yl)urea] | 1000 to 10000 |
| Cc1cc(NCCO)nc(NC(=O)Nc2ccc(C(F)(F)F)cc2)n1 [Compound 201] | < 1000 |
| Cc1cc(NCCCO)nc(NC(=O)Nc2ccc(Cl)cc2)n1 [Compound 41, 3-{2-[3-(p-Chlorophenyl)ureido]-6-methyl-4-pyrimidinylamino}-propanol] | < 1000 |
| Cc1cc(NCCCN(C)C)nc(NC(=O)Nc2ccc3c(c2)OCO3)n1 [Compound 281, 1-(benzo[d][1,3]dioxol-5-yl)-3-(4-((3-(dimethylamino)propyl)amino)-6-methylpyrimidin-2-yl)urea] | 1000 to 10000 |
| CNCCCNc1cc(C)nc(NC(=O)Nc2ccccc2)n1 [Compound 83, 1-(4-methyl-6-((3-(methylamino)propyl)amino)pyrimidin-2-yl)-3-phenylurea] | 1000 to 10000 |
| Cc1cc(NCC2CCCNC2)nc(NC(=O)Nc2ccc(F)c(C(F)(F)F)c2)n1 (stereo not drawn) [Compound 122] | < 1000 |
| Cc1cc(NCCCCO)nc(NC(=O)Nc2ccc(F)c(Cl)c2)n1 [Compound 163] | < 1000 |
| CCNc1cc(C)nc(NC(=O)Nc2ccc(OC(F)(F)F)cc2)n1 [Compound 90] | < 1000 |
| Cc1cc(NCCN)nc(NC(=O)Nc2cccc(OC(F)(F)F)c2)n1 [Compound 178] | < 1000 |
| Cc1cc(NCCCc2ccccn2)nc(NC(=O)Nc2ccc(Cl)c(Cl)c2)n1 [Compound 21] | 1000 to 10000 |
| CC(=O)NCCCNc1cc(C)nc(NC(=O)Nc2ccc(C(C)(C)C)cc2)n1 [Compound 310, N-(3-{2-[3-(4-tert-butyl-phenyl)-ureido]-6-methyl-pyrimidin-4-ylamino}-propyl)-acetamide] | < 1000 |
| CNCCCNc1cc(C)nc(NC(=O)Nc2ccc(Cl)c(C(F)(F)F)c2)n1 [Compound 64] | < 1000 |
| Cc1ccc(NC(=O)Nc2nc(C)cc(NCCN)n2)cc1 [Compound 237] | < 1000 |
| Cc1cc(NCCCN)nc(NC(=O)Nc2ccc(F)c(Cl)c2)n1 [Compound 158, 1-(4-((3-aminopropyl)amino)-6-methylpyrimidin-2-yl)-3-(3-chloro-4-fluorophenyl)urea] | < 1000 |
| CNCCCCNc1cc(C)nc(NC(=O)Nc2ccc(C)c(C)c2)n1 [Compound 270] | < 1000 |
| Cc1ccc(NC(=O)Nc2nc(C)cc(NCCO)n2)cc1 [Compound 240] | < 1000 |
| Cc1cc(NCCO)nc(NC(=O)Nc2ccccc2)n1 [Compound 71] | 1000 to 10000 |

| Structure (SMILES) | IC50 [nM] |
| --- | --- |
| Cc1cc(NC2CCNC2)nc(NC(=O)Nc2ccc(F)c(C(F)(F)F)c2)n1 (stereo not drawn) [Compound 123] | < 1000 |
| COc1ccc(NC(=O)Nc2nc(C)cc(NCCCN)n2)cc1 [Compound 131] | < 1000 |
| Cc1cc(NCCCCN)nc(NC(=O)Nc2cccc(OC(F)(F)F)c2)n1 [Compound 173] | < 1000 |
| CNCCNc1cc(C)nc(NC(=O)Nc2ccc(Cl)c(Cl)c2)n1 [Compound 28] | < 1000 |
| CNCCCNc1cc(C)nc(NC(=O)Nc2ccc(OC(F)(F)F)cc2)n1 [Compound 99, 1-[4-Methyl-6-(3-methylamino-propylamino)-pyrimidin-2-yl]-3-(4-trifluoromethoxy-phenyl)-urea] | < 1000 |
| CNCCCCNc1cc(C)nc(NC(=O)Nc2cccc(OC)c2)n1 [Compound 154] | 1000 to 10000 |
| Cc1ccc(NC(=O)Nc2nc(C)cc(NCC3CCCNC3)n2)cc1 (stereo not drawn) [Compound 249, 1-(4-methyl-6-((piperidin-3-ylmethyl)amino)pyrimidin-2-yl)-3-(p-tolyl)urea] | 1000 to 10000 |
| CNCCNc1cc(C)nc(NC(=O)Nc2cccc(OC)c2)n1 [Compound 153, 1-(3-methoxyphenyl)-3-(4-methyl-6-((2-(methylamino)ethyl)amino)pyrimidin-2-yl)urea] | 1000 to 10000 |
| Cc1cc(NCCCCN)nc(NC(=O)Nc2ccc(C(F)(F)F)cc2)n1 [Compound 197] | < 1000 |
| Cc1cc(NCCCN(C)C)nc(NC(=O)Nc2ccc(Cl)cc2)n1 [Compound 44, 1-{2-[3-(4-chloro-phenyl)ureido]-6-methyl-4-pyrimidin-ylamino}-3-(dimethylamino)propane] | < 1000 |
| Cc1cc(NCCCN(C)C)nc(NC(=O)Nc2ccc(F)c(C(F)(F)F)c2)n1 [Compound 101, 3-(dimethylamino)-1-(2-{3-[4-fluoro-3-(trifluoromethyl)phenyl]ureido}-6-methyl-4-pyrimidinylamino)propane] | < 1000 |
| Cc1cc(NCC(F)(F)CO)nc(NC(=O)Nc2ccccc2)n1 [Compound 79] | 1000 to 10000 |
| Cc1cc(NCCCN(C)C)nc(N2CCN(c3ccc(Cl)c(Cl)c3)C2=O)n1 [Compound 36, 3-(3,4-dichlorophenyl)-1-{4-[3-(dimethylamino)propylamino]-6-methyl-2-pyrimidinyl}-2-imidazolidinone] | < 1000 |
| Cc1cc(NCCNS(C)(=O)=O)nc(NC(=O)Nc2ccc(OC(F)(F)F)cc2)n1 [Compound 279] | < 1000 |
| Cc1cc(NCC2CCCN(C)C2)nc(NC(=O)Nc2ccc(Cl)c(Cl)c2)n1 (stereo not drawn) [Compound 16] | < 1000 |
| COc1cccc(NC(=O)Nc2nc(C)cc(NCCCc3ncc[nH]3)n2)c1 [Compound 149] | 1000 to 10000 |
| Cc1cc(NCCCCN)nc(NC(=O)Nc2cccc(C(F)(F)F)c2)n1 [Compound 190] | < 1000 |
| Cc1cc(NCCN)nc(NC(=O)Nc2ccc3c(c2)OCCO3)n1 [Compound 293] | 1000 to 10000 |
| Cc1cc(NCCN)nc(NC(=O)Nc2ccc(Cl)c(Cl)c2)n1 [Compound 14] | < 1000 |
| Cc1cc(NCC(O)CO)nc(NC(=O)Nc2ccc(Cl)c(C(F)(F)F)c2)n1 (stereo not drawn) [Compound 52] | < 1000 |
| COc1ccc(NC(=O)Nc2nc(C)cc(NCCCN(C)C)n2)cc1 [Compound 125] | < 1000 |

| Structure (SMILES) | IC50 [nM] |
| --- | --- |
| Cc1cc(NCCN(C)C)nc(NC(=O)Nc2ccc3c(c2)OCCO3)n1 [Compound 294] | < 1000 |
| CNCCNc1cc(C)nc(NC(=O)Nc2ccc3c(c2)OCCO3)n1 [Compound 298, 1-(2,3-dihydrobenzo[b][1,4]dioxin-6-yl)-3-(4-methyl-6-((2-(methylamino)ethyl)amino)pyrimidin-2-yl)urea] | < 1000 |
| COc1ccc(NC(=O)Nc2nc(C)cc(NCCc3ccccn3)n2)cc1 [Compound 134] | 1000 to 10000 |
| COc1ccc(NC(=O)Nc2nc(C)cc(NCCN)n2)cc1 [Compound 127] | < 1000 |
| CNCCNc1cc(C)nc(NC(=O)Nc2cccc(C)c2)n1 [Compound 229, 1-(4-methyl-6-((2-(methylamino)ethyl)amino)pyrimidin-2-yl)-3-(m-tolyl)urea] | 1000 to 10000 |
| Cc1cc(NCCN)nc(NC(=O)Nc2cccc(C(F)(F)F)c2)n1 [Compound 182] | < 1000 |
| COC(=O)CCNc1cc(C)nc(NC(=O)Nc2ccc(Cl)c(Cl)c2)n1 [Compound 20] | < 1000 |
| CCCNc1cc(C)nc(NC(=O)Nc2ccc(OC)cc2)n1 [Compound 128] | < 1000 |
| Cc1ccc(NC(=O)Nc2nc(C)cc(NCCOCCO)n2)cc1 [Compound 238] | 1000 to 10000 |
| Cc1cc(NCCCCN)nc(NC(=O)Nc2ccc(C)c(C)c2)n1 [Compound 254] | < 1000 |
| Cc1cc(NCCCCN)nc(NC(=O)Nc2ccc(F)c(Cl)c2)n1 [Compound 160] | < 1000 |
| COC(=O)CCNc1cc(C)nc(NC(=O)Nc2ccc(OC(F)(F)F)cc2)n1 [Compound 92] | < 1000 |
| Cc1cc(NCC(C)O)nc(NC(=O)Nc2ccc(OC(F)(F)F)cc2)n1 (stereo not drawn) [Compound 95] | < 1000 |
| CNCCNc1cc(C)nc(NC(=O)Nc2ccc3c(c2)OCO3)n1 [Compound 288, 1-(benzo[d][1,3]dioxol-5-yl)-3-(4-methyl-6-((2-(methylamino)ethyl)amino)pyrimidin-2-yl)urea] | < 1000 |
| Cc1cc(NCCCO)nc(N2CCN(c3ccc(Cl)c(Cl)c3)C2=O)n1 [Compound 35, 3-(3,4-dichlorophenyl)-1-[4-(3-hydroxypropylamino)-6-methyl-2-pyrimidinyl]-2-imidazolidinone] | < 1000 |
| Cc1cccc(NC(=O)Nc2nc(C)cc(NCC(O)CO)n2)c1 (stereo not drawn) [Compound 223] | < 1000 |
| Cc1cc(NCCN(C)C)nc(NC(=O)Nc2ccc(Cl)c(Cl)c2)n1 [Compound 11] | < 1000 |
| Cc1cc(NCCCN)nc(NC(=O)Nc2ccc(F)c(C(F)(F)F)c2)n1 [Compound 111] | < 1000 |
| Cc1cc(NCCN)nc(NC(=O)Nc2ccc(OC(F)(F)F)cc2)n1 [Compound 87, 1-(4-((2-aminoethyl)amino)-6-methylpyrimidin-2-yl)-3-(4-(trifluoromethoxy)phenyl)urea] | < 1000 |
| COc1ccc(NC(=O)Nc2nc(C)cc(NCC(O)CO)n2)cc1 (stereo not drawn) [Compound 135] | < 1000 |
| Cc1ccc(NC(=O)Nc2nc(C)cc(NCC(O)CO)n2)cc1 (stereo not drawn) [Compound 246] | < 1000 |

Reference: patent publication US11691951B2 (Curtana Pharmaceuticals, Inc., priority 2015, dated 2023)
